Results on one compound are retold here after article PMC7734590, “Identification of a Selective RelA Inhibitor Based on DSE-FRET Screening Methods” (International Journal of Molecular Sciences, 2020).

One assay relates to PK8 cells. Kind of assay: Cell viability assay (PrestoBlue), TNF-α-treated PK8 cells. The assay is classed as cell-based, human. Conditions: TNF-α 50 ng/mL, 48 h. On the procedure:
The human pancreatic carcinoma cell line PK8 was grown in Roswell Park Memorial Institute 1640 Medium (RPMI) (SIGMA; R8758) supplemented with 10% fetal bovine serum (FBS) at 37 °C with 5% CO2.
Cell viability was measured using the PrestoBlue assay according to the standard protocol (Thermo Fisher Scientific, Waltham, MA, USA: A13261). PK8 cells were cultivated on 96-well plates. After a 48 h treatment with TNF-α (50 ng/mL) in the presence or absence of A55, the culture medium was replaced with fresh medium containing 10% PrestoBlue and incubated for an additional 1 h at 37 °C and 5% CO2. Fluorescence intensity was then measured using a multiplate reader (EnSpire, PerkinElmer, Waltham, MA, USA).

In assay [1] the target is T1, RelA (Homo sapiens, UniProt Q04206). Kind of assay: DSE-FRET RelA–DNA binding inhibition. The assay is classed as biochemical.
T1 sequence (Q04206 19-306 limits assumed): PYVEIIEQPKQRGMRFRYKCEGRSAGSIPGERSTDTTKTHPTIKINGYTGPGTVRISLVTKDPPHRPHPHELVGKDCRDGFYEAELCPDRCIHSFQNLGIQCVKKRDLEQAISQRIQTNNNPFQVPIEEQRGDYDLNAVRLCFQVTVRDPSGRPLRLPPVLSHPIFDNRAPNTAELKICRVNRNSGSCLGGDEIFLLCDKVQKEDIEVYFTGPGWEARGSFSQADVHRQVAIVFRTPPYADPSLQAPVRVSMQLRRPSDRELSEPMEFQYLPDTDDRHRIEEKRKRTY
Protocol: (§1) Plate-based (384 scale) DNA-binding experiments were carried out with 0.1 µL of 2 mM or 1 mg/mL compound, 2 µL of 80 nM NF-D1 (consisting of NF-01F and NF-14D), 1 µL of 20 ng/µL poly dI-dC, and 6.9 µL of 3.2 pmol protein in binding buffer (10 mM 4-(2-hydroxyethyl)-1-piperazineethanesulfonic acid (HEPES)–NaOH pH 7.9, 50 mM KCl, 0.1 mM ethylenediaminetetraacetic acid (EDTA), 2.5 mM dithiothreitol (DTT), 10% glycerol, and 0.05% Nonidet P40). The plates were incubated for 30 min at room temperature, after which 10 µL of NF-D2 (consisting of NF-02 and NF-13) was added. The plates were centrifuged at 1000 rpm for 30 s, followed by shaking for 30 s using a plate shaker (Biotec). Fluorescence was measured at 528 nm, after excitation at 485 nm, using a multiplate reader (Biotec) over a period of 60 min.
Assay [2] concerns the target T1, RelA. Kind of assay: EMSA with recombinant RelA. The assay is classed as biochemical. For orientation: In EMSA bound probe runs differently from free probe, usually more slowly.
The target in another assay is GST–RelA (Homo sapiens, UniProt Q04206). Kind of assay: SPR analysis with immobilized GST–RelA. The assay is classed as binding. Conditions: for Rmax / Kd: GST–RelA; for Kd: read-out: dissociation constant (Kd). The procedure: SPR biosensor measurements were performed at 25 °C using a Biacore T100 instrument (GE Healthcare, Chicago, IL, USA). […] Next, 4 µg/mL GST–RelA or 5 µg/mL GST (GE Healthcare) was flowed through the channel (5 μL/min, for 180 s) and captured on the sensor chip. […] Dissociation constants were computed by fitting to a 1:1 interaction model using Biacore (GE Healthcare). Stoichiometry was calculated based on the theoretical Rmax value, where the theoretical Rmax = MWA/MWL RL SM (A, analyte; L, ligand; RL, immobilization level of ligand RU; SM, stoichiometry).
GST–RelA, sequence (Q04206 19-306 limits assumed): as above

Assay [3] concerns the target T2, p52 (Homo sapiens, UniProt Q00653).
T2 sequence (Q00653 1-454 limits assumed): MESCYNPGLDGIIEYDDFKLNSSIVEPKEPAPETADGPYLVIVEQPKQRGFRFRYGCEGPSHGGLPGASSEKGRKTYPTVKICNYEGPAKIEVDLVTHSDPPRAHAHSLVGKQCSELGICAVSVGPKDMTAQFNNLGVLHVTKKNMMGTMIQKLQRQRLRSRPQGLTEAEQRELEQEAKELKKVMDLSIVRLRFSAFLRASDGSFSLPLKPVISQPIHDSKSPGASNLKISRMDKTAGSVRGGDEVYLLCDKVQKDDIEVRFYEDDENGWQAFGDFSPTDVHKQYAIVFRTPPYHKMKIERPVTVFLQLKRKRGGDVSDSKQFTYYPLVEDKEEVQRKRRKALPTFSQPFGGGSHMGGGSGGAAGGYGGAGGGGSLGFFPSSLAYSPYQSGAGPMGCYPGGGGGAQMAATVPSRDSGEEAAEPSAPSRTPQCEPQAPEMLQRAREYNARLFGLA
The assay is described as follows: EMSA with recombinant p52. The assay is classed as biochemical.

In the next assay the target is T3, cRel (Homo sapiens, UniProt Q04864).
T3 construct: GST; made in house
T3 sequence (Q04864 1-619): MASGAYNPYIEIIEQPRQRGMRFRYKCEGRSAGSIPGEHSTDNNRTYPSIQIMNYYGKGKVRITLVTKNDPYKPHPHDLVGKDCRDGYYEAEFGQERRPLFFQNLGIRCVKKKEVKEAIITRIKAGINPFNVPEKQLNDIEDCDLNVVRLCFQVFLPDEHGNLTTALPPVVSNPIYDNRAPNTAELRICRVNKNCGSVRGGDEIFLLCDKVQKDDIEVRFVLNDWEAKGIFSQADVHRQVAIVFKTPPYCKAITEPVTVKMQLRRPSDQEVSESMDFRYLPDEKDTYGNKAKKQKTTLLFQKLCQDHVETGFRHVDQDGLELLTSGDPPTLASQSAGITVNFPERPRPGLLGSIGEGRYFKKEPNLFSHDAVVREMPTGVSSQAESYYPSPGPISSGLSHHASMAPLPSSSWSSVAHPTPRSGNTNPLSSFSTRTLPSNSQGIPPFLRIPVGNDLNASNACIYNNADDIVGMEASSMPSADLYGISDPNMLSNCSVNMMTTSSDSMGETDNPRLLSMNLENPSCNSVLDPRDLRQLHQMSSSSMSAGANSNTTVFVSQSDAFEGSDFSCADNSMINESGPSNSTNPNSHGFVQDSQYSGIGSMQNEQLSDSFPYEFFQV
Kind of assay: DSE-FRET cRel–DNA binding inhibition. The assay is classed as biochemical.

In assay [4] the target is T2, p52. Kind of assay: DSE-FRET p52–DNA binding inhibition. The assay is classed as biochemical.
Protocol: as §1
For the next assay, the target named is T4, p50 (Homo sapiens, UniProt P19838).
T4 sequence (P19838 1-433 limits assumed): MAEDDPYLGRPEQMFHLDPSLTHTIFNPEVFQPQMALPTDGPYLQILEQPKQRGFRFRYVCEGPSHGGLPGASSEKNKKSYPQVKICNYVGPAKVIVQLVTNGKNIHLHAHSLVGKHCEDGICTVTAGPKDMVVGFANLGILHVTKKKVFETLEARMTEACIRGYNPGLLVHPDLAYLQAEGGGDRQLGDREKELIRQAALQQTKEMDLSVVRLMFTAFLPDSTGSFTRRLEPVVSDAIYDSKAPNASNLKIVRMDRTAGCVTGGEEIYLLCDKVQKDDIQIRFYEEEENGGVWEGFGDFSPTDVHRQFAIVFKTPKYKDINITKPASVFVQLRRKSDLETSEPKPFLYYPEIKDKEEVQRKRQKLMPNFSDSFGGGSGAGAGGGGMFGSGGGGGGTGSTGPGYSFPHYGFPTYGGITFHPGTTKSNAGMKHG
Kind of assay: DSE-FRET p50–DNA binding inhibition. The assay is classed as biochemical.

Where two headings read alike, the source gives them in different places.

Protocol for cRel: as §1
Protocol for p50: as §1

For `Cc1cc(O)n(CC(=O)O)c(=O)c1C(N)=O` [A55, 2-(3-carbamoyl-6-hydroxy-4-methyl-2-oxopyridin-1(2H)-yl) acetic acid], the “cell proliferation / growth inhibition” value in the assay on PK8 cells was “enhanced the growth inhibition of TNF-α-treated PK8 cells in a dose-dependent manner”. Besides, the “Hit Judgement of: RelA” value at RelA [1] (2nd screening at 96 well plate, 1 = judged hit) is on record as 1. Further, at RelA [1] (2–10 µM), the “dose–response of RelA–DNA binding inhibition” value is listed as “inhibited RelA–DNA binding in a concentration-dependent manner”. Also, the “ligand efficiency (LE)” value on RelA [1] (16 heavy atoms) turned out to be 0.44. The “RelA–DNA binding inhibition” value on RelA [1] (96-well plate, in silico selected compounds) is “over 50%”. Moreover, the “RelA–DNA binding inhibition at 50 µM” value on RelA [1] (96-well plates, 50 µM) is given as “inhibited only RelA–DNA binding”. Further, the inhibition at 50 µM worked out at 63% at RelA [1] (96 well plate, 50 µM, 120 min-0 min, read-out: Kinetic assay @ 50 µM RelA Inhibition % ΔRFU(120 min-0 min)) and 6.66% at p52 [4] (96 well plate, 50 µM, 120 min-0 min, read-out: Kinetic assay @ 50 µM p52 Inhibition % ΔRFU(120 min-0 min)). Moreover, the IC50 is 9.31 µM on RelA [1] (DSE-FRET), > 100 µM at cRel, > 100 µM on p52 [4] (DSE-FRET) and > 100 µM at p50. Moreover, the “EMSA inhibition of RelA–DNA binding” value at RelA [2] was “selectively inhibited the RelA–DNA binding”. The figures for the Rmax at GST–RelA (0.625–20 µM A55) and at GST–RelA (3.125–100 µM A55) were 7.3 RU and 4.7 RU, respectively. Besides, the Kd at GST–RelA (0.625–20 µM A55) amounted to 2.87 µM; at GST–RelA (3.125–100 µM A55), 13 µM. The Rmax GST-RelA on GST–RelA (Run 1, 100 uM - […], theoretical Rmax 4.5) turned out to be 4.7 RU; on GST–RelA (Run 2, 20 uM - […], theoretical Rmax 5.0) it was 7.3 RU. On p52 [3], the “EMSA inhibition of p52–DNA binding” value is reported as “selectively inhibited the RelA–DNA binding”. Besides, the “p52–DNA binding inhibition at 50 µM” value at p52 [4] (96-well plates, 50 µM) is listed as “inhibited only RelA–DNA binding”.

For orientation: inhibition means the change of the read-out against control, counted positive when it falls. What is called IC50 is the concentration at which inhibition is half-maximal. Usually Kd stands for the equilibrium constant for the complex coming apart.
